Laboratory results: patent publication US20260242390A1, “TOTAL SYNTHESES OF PORTIMINE A AND ANALOGUES THEREOF AS SMALL MOLECULE MODULATORS OF NMD3” (priority 2023, published 2026)

Tested on: Jurkat cells
Assay: Initial SAR: activity of PAL functionalized PTMA analogs
Type: cell-based, human
Conditions: in the concentrate range
Text: FIG. 3. Initial SAR studies: Assessing activity of PAL functionalized PTMA analogs. […] (A) PA and Ph-PA show less toxic to healthy PBMCs compared to Jurkat cells. […] (B) Immunoblot of caspase-3 in Jurkat and PBMCs with indicated conditions.
• 1) Portimine A and its functional analogs show stereo-selective acute toxicity in cancer cells (FIG. 1). […] (B) Structure of portimine related analogs: phenyl-portimine A (Ph-PA, 36) and epi-portimine A (ePA, 38). Structure of fully functionalized portimine A-based epimeric probe pair: portimine A-diazirine-alkyne (PA-DA, 35-2) and epi-portimine A-diazirine-alkyne (ePA-DA, 35-1). (C) Cell viability analysis of portimine A and analogs. Jurkat cells were treated with increasing concentrations of portimine A and analogs for 24 hours. All presented data as mean of biological replicated experiments (n=3). […] Jurkat cells were treated with portimine A or analogs for 12 hours at 10 nM. […] Structurally related negative control ePA and PB are non-toxic in all cell types in the current concentrate range. PBMCs (25k per well), Jurkat (10k per well). […] Cell cycle analysis in Jurkat cells (FIG. 2). Jurkat cells were treated with 10 nM of indicated compounds for 24 hours, and propodium iodide was used to identify different stages of cells by flow cytometry. […] (A) PA and Ph-PA show less toxic to healthy PBMCs compared to Jurkat cells. […] (B) Immunoblot of caspase-3 in Jurkat and PBMCs with indicated conditions. […] (A) Pharmacokinetic studies of mouse intraperitoneal (i.p.) and oral (p.o.) administration for portimine (n=3). […] Impact of PA [0.3 or 1 mg/kg intraperitoneally] on MC38 tumor growth in WT mice (n=6). (C) Kaplan-Myer survival curve of WT MC38 tumor-bearing mice (n=6) after treatment with PA as described in (D). Mice were euthanized when tumor area exceeded 2000 mm^3. Statistical analysis was performed using ANOVA analysis followed by multiple comparisons test, * p≤0.05. Treatment condition: Jurkat (60 M per condition); PA-DA/ePA-DA concentration: 0.5 uM, PA or ePA: 5 uM; Incubate with probe with or without competitors (PA, ePA) for 30 min; UV irradiated for 20 min. (0.5 uM PA-DA add a no-UV condition), Standard pulldown & biotin-enrichment and western blot analysis (Elute condition: 2× sample buffer+500 uM biotin, boil for 20 mins); Primary antibody NMD3 (ProteinTech, 1:150), Actin (BioRad, 1:10000). […] Cell lysates were fractionated by sucrose gradient (5-50%) and each fraction were analyzed by western blot. eIF6 levels increase in 60S subunit fraction and decrease in ribosome-free fractions after PA treatment. […]

| SMILES | activity of PAL functionalized PTMA analogs |
| --- | --- |
| C#CCCC1(CCNC(=O)c2ccc(C3=C[C@@H]4[C@@H]5O[C@]6(CC[C@H](O6)C(C)C[C@@H](O)C5=O)CC(O)C5=NCC[C@@]54CC3)cc2)N=N1 (stereo partly drawn) [PA-DA, portimine A-diazirine-alkyne] | analogous activity to PTMA |
| C=CC1=C[C@@H]2[C@@H]3O[C@]4(CC[C@H](O4)C(C)C[C@@H](O)C3=O)C[C@@H](O)C3=NCC[C@@]32CC1 (stereo partly drawn) [ePA, epi-portimine A] | no activity |
| C#CCCC1(CCNC(=O)c2ccc(C3=C[C@@H]4[C@@H]5O[C@]6(CC[C@H](O6)C(C)C[C@@H](O)C5=O)C[C@@H](O)C5=NCC[C@@]54CC3)cc2)N=N1 (stereo partly drawn) [ePA-DA, epi-portimine A-diazirine-alkyne] | no activity |
